Experimental data published in patent US20190124924A1, “FUNGAL CONTROL OF WHITE MOLD” (DOW AGROSCIENCES LLC, priority 2015, published 2019).

What was measured:
Sclerotinia sclerotiorum [1] = test: Inhibition of mycelial growth by fungicides in Petri dishes (growth medium + fungicide); assay type: cell-based; conditions: for inhibition at 0.1 ppm / inhibition at 1 ppm / inhibition at 10 ppm / inhibition at 100 ppm: Sclerotinia sclerotiorum, 192 h, read-out: Percent (%) Inhibition of Mycelial Growth of Sclerotinia sclerotiorum
Method: Evaluation of Inhibition of Mycelial Growth by Fungicides (Sclerotinia sclerotiorum; Bayer code: […]): The growth inhibition of the fungus (Sclerotinia sclerotiorum) was assessed in Petri dishes containing the growth medium+fungicide at different concentrations. […] The number of sclerotia were counted. A completely randomized design with three replicates was used. Treatments consisted of fungicide compounds including Formula I, fluazinam, thiophanate-methyl, and procymidone.

Sclerotinia sclerotiorum [2] = test: Inhibition of Sclerotinia sclerotiorum on detached soybean leaves; assay type: in vivo; conditions: read-out: Percent (%) Inhibition of Sclerotinia sclerotiorum on Detached Soybean Leaves
Method: Evaluation of Inhibition of Sclerotinia sclerotiorum on Detached Soybean Leaves: Detached leaves of soybean were immersed for 3 seconds (s) in fungicide solutions at different concentrations and placed in Petri dishes. […] Symptoms were assessed for percent disease severity. Three leaves per plate with three replicates in a completely randomized design. Treatments consisted of fungicide compounds including Formula I, fluazinam, thiophanate-methyl, and procymidone.

Sclerotinia sclerotiorum [3] = test: Field trial in dry bean, incidence of white mold; assay type: in vivo; conditions: two applications R5 and R6, untreated 12.5
Method: A field trial in dry bean was carried out in the state of Sao Paulo, Brazil. Two applications of the fungicides were done at growth stages R5 (first bloom) and R6 (full bloom) by using a carbon dioxide (CO2) backpack sprayer at an application rate of 600 liters per hectare (Uha). […] Treatments consisted of fungicide compounds including Formula I, fluazinam, thiophanate-methyl, and procymidone.

Sclerotinia sclerotiorum [4] = test: Field trials in oilseed rape, incidence of white mold and yield; assay type: in vivo; conditions: single application; for Yield of Oilseed Rape: untreated 4.08; for Percent (%) Incidence of Sclerotinia sclerotiorum at B65-B67 Growth Stage in Oilseed Rape: untreated 55

Structure (SMILES)	Number of Sclerotinia Formed per Colony (Sclerotinia sclerotiorum [1]; 0.1 ppm)	Number of Sclerotinia Formed per Colony (Sclerotinia sclerotiorum [1]; 1 ppm)	Number of Sclerotinia Formed per Colony (Sclerotinia sclerotiorum [1]; 10 ppm)	Number of Sclerotinia Formed per Colony (Sclerotinia sclerotiorum [1]; 100 ppm)	inhibition at 0.1 ppm (Sclerotinia sclerotiorum [1]; 0.1 ppm, 22° C., 8 days)	inhibition at 1 ppm (Sclerotinia sclerotiorum [1]; 1 ppm, 22° C., 8 days)	inhibition at 10 ppm (Sclerotinia sclerotiorum [1]; 10 ppm, 22° C., 8 days)	inhibition at 100 ppm (Sclerotinia sclerotiorum [1]; 100 ppm, 22° C., 8 days)	inhibition at 0.1 ppm (Sclerotinia sclerotiorum [2]; 0.1 ppm, leaves immersed 3 s)	inhibition at 1 ppm (Sclerotinia sclerotiorum [2]; 1 ppm, leaves immersed 3 s)	inhibition at 10 ppm (Sclerotinia sclerotiorum [2]; 10 ppm, leaves immersed 3 s)	inhibition at 100 ppm (Sclerotinia sclerotiorum [2]; 100 ppm, leaves immersed 3 s)	Yield of Oilseed Rape (Sclerotinia sclerotiorum [4]; 150 g ai/ha)	Percent (%) Incidence of Sclerotinia sclerotiorum at B65-B67 Growth Stage in Oilseed Rape (Sclerotinia sclerotiorum [4]; 150 g ai/ha)	other results
O=[N+]([O-])c1cc(C(F)(F)F)c(Cl)c([N+](=O)[O-])c1Nc1ncc(C(F)(F)F)cc1Cl [Fluazinam, fluazinam]	5.7	4.3	0	0	59.7%	71.6%	82.6%	100%	25.9%	53.5%	66.1%	100%			Percent (%) Incidence of Sclerotinia sclerotiorum at R7 Growth Stage on Dry Bean (Sclerotinia sclerotiorum [3]; 500 g ai/ha): 0.8%
COc1ccnc(C(=O)N[C@H]2COC(=O)[C@H](Cc3ccccc3)[C@@H](OC(=O)C(C)C)[C@H](C)OC2=O)c1OCOC(=O)C(C)C [Compound I, (3S,6S,7R,8R)-8-benzyl-3-(3-((isobutyryloxy)methoxy)-4-methoxypicolinamido)-6-methyl-4,9-dioxo-1,5-dioxonan-7-yl isobutyrate]	3.33	2.33	1.67	1.33									4.23 T/ha	19%	inhibition at 0.1 ppm (Sclerotinia sclerotiorum [1]): 28.3%; inhibition at 1 ppm (Sclerotinia sclerotiorum [1]): 72.4%; inhibition at 10 ppm (Sclerotinia sclerotiorum [1]): 80.7%; inhibition at 100 ppm (Sclerotinia sclerotiorum [1]): 91%; inhibition at 0.1 ppm (Sclerotinia sclerotiorum [2]): 8.63%; inhibition at 1 ppm (Sclerotinia sclerotiorum [2]): 66.1%; inhibition at 10 ppm (Sclerotinia sclerotiorum [2]): 92.5%; inhibition at 100 ppm (Sclerotinia sclerotiorum [2]): 100%; Yield of Oilseed Rape (Sclerotinia sclerotiorum [4]; 100 g ai/ha): 4.22 T/ha; Percent (%) Incidence of Sclerotinia sclerotiorum at B65-B67 Growth Stage in Oilseed Rape (Sclerotinia sclerotiorum [4]; 100 g ai/ha): 24%; Yield of Oilseed Rape (Sclerotinia sclerotiorum [4]; 130 g ai/ha): 4.29 T/ha; Percent (%) Incidence of Sclerotinia sclerotiorum at B65-B67 Growth Stage in Oilseed Rape (Sclerotinia sclerotiorum [4]; 130 g ai/ha): 24%; Yield of Oilseed Rape (Sclerotinia sclerotiorum [4]; 200 g ai/ha): 4.48 T/ha; Percent (%) Incidence of Sclerotinia sclerotiorum at B65-B67 Growth Stage in Oilseed Rape (Sclerotinia sclerotiorum [4]; 200 g ai/ha): 14%; Percent (%) Incidence of Sclerotinia sclerotiorum at R7 Growth Stage on Dry Bean (Sclerotinia sclerotiorum [3]; 120 g ai/ha): 3.5%; Percent (%) Incidence of Sclerotinia sclerotiorum at R7 Growth Stage on Dry Bean (Sclerotinia sclerotiorum [3]; 240 g ai/ha): 1%
CC12CC1(C)C(=O)N(c1cc(Cl)cc(Cl)c1)C2=O (centres unmarked) [Procymidone, procymidone]	18.67	16.2	1.67	0	10%	24.5%	68.2%	100%	19.5%	59.8%	85.1%	100%			
O=C(Nc1ccccc1-c1ccc(Cl)cc1)c1cccnc1Cl [Boscalid, boscalid]															Yield of Oilseed Rape (Sclerotinia sclerotiorum [4]; 250 g ai/ha): 4.34 T/ha; Percent (%) Incidence of Sclerotinia sclerotiorum at B65-B67 Growth Stage in Oilseed Rape (Sclerotinia sclerotiorum [4]; 250 g ai/ha): 4%
COC(=O)NC(=S)Nc1ccccc1NC(=S)NC(=O)OC [Thiophanate-Methyl, thiophanate-methyl]	19.25	17.56	0	0	0%	32.2%	78.3%	100%	20.7%	43.1%	87.4%	100%			
OC(Cc1ccccc1Cl)(Cn1nc[nH]c1=S)C1(Cl)CC1 (racemic) [Prothioconazole, 2-[(2RS)-2-(1-chlorocyclopropyl)-3-(2-chlorophenyl)-2-hydroxypropyl]-2H-1,2,4-triazole-3(4H)-thione]													4.4 T/ha	31%	Yield of Oilseed Rape (Sclerotinia sclerotiorum [4]; 173 g ai/ha): 4.49 T/ha; Percent (%) Incidence of Sclerotinia sclerotiorum at B65-B67 Growth Stage in Oilseed Rape (Sclerotinia sclerotiorum [4]; 173 g ai/ha): 20%
